Reference: patent US8815881B2 (Hoffmann-La Roche Inc., priority 2010, dated 2014)

target: BACE2 enzyme ectodomain (Homo sapiens (Human), UniProt Q9Y5Z0); assay: Fluorescent-peptide cleavage assay for BACE2 inhibition; type: biochemical; conditions: assay b): fluorescent-peptide cleavage, pH 4.5 (superscript b)
Procedure: b) Fluorescent-Peptide Cleavage Assay for BACE2 Inhibition
BACE2 enzyme ectodomain (derived from plasmid “pET17b-T7-hu proBACE2”) was prepared as described in Ostermann et al., “Crystal Structure of Human BACE2 in Complex with a Hydroxyethylamine Transition-state Inhibitor”, Journal of Molecular Biology 2006, 355, 249-261. The pro-enzyme was stored at 4° C. at a concentration of 70 μg/ml.
A fluorescent peptide with the amino acid sequence WS EVNLD AEFRC-MR121 was synthesised and a stock solution of 1.5 mM in DMSO prepared and stored at −20° C. MR121 is a fluorophore with an excitation wavelength of 630 nm and emission wavelength of 695 nm. The MR121 fluorescence is quenched by the N-terminal tryptophan until the peptide is cleaved by BACE2.
Assays were all made in a Corning 384-well black polystyrene non-binding surface microtitre plate with clear flat bottom and using a Plate:Vision (Perkin Elmer) fluorescence reader. To perform the assay an 80 nM solution of BACE2 was prepared in assay buffer (assay buffer is 100 mM Na-acetate; 20 mM EDTA; 0.05% BSA; pH 4.5) and incubated at room temperature for 1 hour to activate the enzyme. 39 μl of the activated BACE2 was placed in each assay well, followed by 1 μl compound to be tested at an appropriate concentration in 100% DMSO. The plate was then mixed and incubated for 10 minutes at room temperature. To start the assay, 10 μl of a 1.5 μM solution fluorescent peptide in assay buffer was added and the fluorescence intensity in the assay mixture measured at 695 nm with an excitation wavelength of 630 nm for 30 minutes.
The assay readout is the rate of change of fluorescence intensity giving a relative measure of BACE2 activity. Small values correspond to high inhibition and larger values to low inhibition. To determine IC50 values (i.e. the concentration inhibiting the enzyme activity by 50%) of the compound for BACE2, typically, 15 assays were made with a range of concentrations chosen empirically to give low, high and intermediate inhibition of the protease. IC50 values were determined using these assay values generated for a range of inhibitor concentrations and the curve fitting software XLfit (IDBS) using the Sigmoidal Dose-Response Model.

BACE2 enzyme ectodomain, sequence (Q9Y5Z0 63-473): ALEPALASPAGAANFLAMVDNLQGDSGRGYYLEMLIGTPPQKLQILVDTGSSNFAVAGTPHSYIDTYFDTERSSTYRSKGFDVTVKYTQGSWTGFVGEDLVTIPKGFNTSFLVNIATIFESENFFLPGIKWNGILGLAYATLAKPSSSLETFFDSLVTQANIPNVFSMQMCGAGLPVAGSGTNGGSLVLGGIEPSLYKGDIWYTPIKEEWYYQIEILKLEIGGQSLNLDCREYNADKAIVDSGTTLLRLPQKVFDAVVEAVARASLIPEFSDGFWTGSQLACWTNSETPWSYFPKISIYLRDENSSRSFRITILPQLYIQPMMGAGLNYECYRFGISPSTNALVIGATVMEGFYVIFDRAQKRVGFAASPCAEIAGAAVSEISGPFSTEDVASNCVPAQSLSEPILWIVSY

| Structure (SMILES) | IC50 [nM] |
| --- | --- |
| CN1C(=O)C(C)(C)[C@@](C)(c2cc(Nc3ccc(OCC(F)(F)F)nc3)ccc2F)N=C1N [Example 172, (S)-2-Amino-6-(2-fluoro-5-(6-(2,2,2-trifluoroethoxy)pyridin-3-ylamino)phenyl)-3,5,5,6-tetramethyl-5,6-dihydropyrimidin-4(3H)-one] | 110 |
| CN1C(=O)C(C)(C)[C@@](C)(c2cc(Nc3ccc(C(F)(F)F)nc3)ccc2F)N=C1N [Example 173, (S)-2-Amino-6-(2-fluoro-5-(6-(trifluoromethyl)pyridin-3-ylamino)phenyl)-3,5,5,6-tetramethyl-5,6-dihydropyrimidin-4(3H)-one] | 400 |
| CN1C(=O)C(C)(C)[C@@](C)(c2cc(Nc3cncc(F)c3)ccc2F)N=C1N [Example 174, (S)-2-Amino-6-(2-fluoro-5-(5-fluoropyridin-3-ylamino)phenyl)-3,5,5,6-tetramethyl-5,6-dihydropyrimidin-4(3H)-one] | 150 |

More lines, now with the values ahead:

| IC50 [nM] | Structure (SMILES) |
| --- | --- |
| 250 | CN1C(=O)C(C)(C)[C@@](C)(c2cc(Nc3cncc(C(F)(F)F)c3)ccc2F)N=C1N [Example 175, (S)-2-Amino-6-(2-fluoro-5-(5-(trifluoromethyl)pyridin-3-ylamino)phenyl)-3,5,5,6-tetramethyl-5,6-dihydropyrimidin-4(3H)-one] |
| 130 | CN1C(=O)C(C)(C)[C@@](C)(c2cc(Nc3ccc(Cl)nc3)ccc2F)N=C1N [Example 176, (S)-2-Amino-6-(5-(6-chloropyridin-3-ylamino)-2-fluorophenyl)-3,5,5,6-tetramethyl-5,6-dihydropyrimidin-4(3H)-one] |
